In BigSolDB 2.1:

O=Cc1ccc([N+](=O)[O-])cc1
solubility (mole fraction) (in 2-butanone, 273.15 K): 0.0367 | solubility (mole fraction) (in 2-butanone, 278.15 K): 0.0459 | solubility (mole fraction) (in 2-butanone, 283.15 K): 0.0567 | solubility (mole fraction) (in 2-butanone, 288.15 K): 0.0689 | solubility (mole fraction) (in 2-butanone, 293.15 K): 0.0836 | solubility (mole fraction) (in 2-butanone, 298.15 K): 0.102 | solubility (mole fraction) (in 2-butanone, 303.15 K): 0.122 | solubility (mole fraction) (in 2-butanone, 308.15 K): 0.147 | solubility (mole fraction) (in 2-butanone, 313.15 K): 0.174 | solubility (mole fraction) (in DMF, 273.15 K): 0.104 | solubility (mole fraction) (in DMF, 278.15 K): 0.119 | solubility (mole fraction) (in DMF, 283.15 K): 0.135 | solubility (mole fraction) (in DMF, 288.15 K): 0.152 | solubility (mole fraction) (in DMF, 293.15 K): 0.17 | solubility (mole fraction) (in DMF, 298.15 K): 0.192 | solubility (mole fraction) (in DMF, 303.15 K): 0.213 | solubility (mole fraction) (in DMF, 308.15 K): 0.237 | solubility (mole fraction) (in DMF, 313.15 K): 0.262 | solubility (mole fraction) (in acetone, 273.15 K): 0.0389 | solubility (mole fraction) (in acetone, 278.15 K): 0.051 | solubility (mole fraction) (in acetone, 283.15 K): 0.0662 | solubility (mole fraction) (in acetone, 288.15 K): 0.0851 | solubility (mole fraction) (in acetone, 293.15 K): 0.107 | solubility (mole fraction) (in acetone, 298.15 K): 0.134 | solubility (mole fraction) (in acetone, 303.15 K): 0.166 | solubility (mole fraction) (in acetone, 308.15 K): 0.202 | solubility (mole fraction) (in acetone, 313.15 K): 0.244 | solubility (mole fraction) (in acetonitrile, 273.15 K): 0.0262 | solubility (mole fraction) (in acetonitrile, 278.15 K): 0.0351 | solubility (mole fraction) (in acetonitrile, 283.15 K): 0.0471 | solubility (mole fraction) (in acetonitrile, 288.15 K): 0.0614 | solubility (mole fraction) (in acetonitrile, 293.15 K): 0.0801 | solubility (mole fraction) (in acetonitrile, 298.15 K): 0.102 | solubility (mole fraction) (in acetonitrile, 303.15 K): 0.13 | solubility (mole fraction) (in acetonitrile, 308.15 K): 0.161 | solubility (mole fraction) (in acetonitrile, 313.15 K): 0.199 | solubility (mole fraction) (in ethanol, 273.15 K): 0.0151 | solubility (mole fraction) (in ethanol, 278.15 K): 0.0177 | solubility (mole fraction) (in ethanol, 283.15 K): 0.0199 | solubility (mole fraction) (in ethanol, 288.15 K): 0.0232 | solubility (mole fraction) (in ethanol, 293.15 K): 0.0265 | solubility (mole fraction) (in ethanol, 298.15 K): 0.031 | solubility (mole fraction) (in ethanol, 303.15 K): 0.0366 | solubility (mole fraction) (in ethanol, 308.15 K): 0.0422 | solubility (mole fraction) (in ethanol, 313.15 K): 0.0498 | solubility (mole fraction) (in ethyl acetate, 273.15 K): 0.0321 | solubility (mole fraction) (in ethyl acetate, 278.15 K): 0.0401 | solubility (mole fraction) (in ethyl acetate, 283.15 K): 0.0488 | solubility (mole fraction) (in ethyl acetate, 288.15 K): 0.0591 | solubility (mole fraction) (in ethyl acetate, 293.15 K): 0.072 | solubility (mole fraction) (in ethyl acetate, 298.15 K): 0.087 | solubility (mole fraction) (in ethyl acetate, 303.15 K): 0.106 | solubility (mole fraction) (in ethyl acetate, 308.15 K): 0.126 | solubility (mole fraction) (in ethyl acetate, 313.15 K): 0.151 | solubility (mole fraction) (in isopropanol, 273.15 K): 0.00326 | solubility (mole fraction) (in isopropanol, 278.15 K): 0.00399 | solubility (mole fraction) (in isopropanol, 283.15 K): 0.00451 | solubility (mole fraction) (in isopropanol, 288.15 K): 0.005 | solubility (mole fraction) (in isopropanol, 293.15 K): 0.00589 | solubility (mole fraction) (in isopropanol, 298.15 K): 0.00703 | solubility (mole fraction) (in isopropanol, 303.15 K): 0.00843 | solubility (mole fraction) (in isopropanol, 308.15 K): 0.00929 | solubility (mole fraction) (in isopropanol, 313.15 K): 0.0111 | solubility (mole fraction) (in methanol, 273.15 K): 0.0263 | solubility (mole fraction) (in methanol, 278.15 K): 0.0323 | solubility (mole fraction) (in methanol, 283.15 K): 0.0398 | solubility (mole fraction) (in methanol, 288.15 K): 0.0488 | solubility (mole fraction) (in methanol, 293.15 K): 0.0596 | solubility (mole fraction) (in methanol, 298.15 K): 0.0731 | solubility (mole fraction) (in methanol, 303.15 K): 0.0884 | solubility (mole fraction) (in methanol, 308.15 K): 0.108 | solubility (mole fraction) (in methanol, 313.15 K): 0.13 | solubility (mole fraction) (in n-butanol, 273.15 K): 0.0118 | solubility (mole fraction) (in n-butanol, 278.15 K): 0.0128 | solubility (mole fraction) (in n-butanol, 283.15 K): 0.0144 | solubility (mole fraction) (in n-butanol, 288.15 K): 0.0161 | solubility (mole fraction) (in n-butanol, 293.15 K): 0.018 | solubility (mole fraction) (in n-butanol, 298.15 K): 0.02 | solubility (mole fraction) (in n-butanol, 303.15 K): 0.0225 | solubility (mole fraction) (in n-butanol, 313.15 K): 0.0283 | solubility (mole fraction) (in n-propanol, 273.15 K): 0.014 | solubility (mole fraction) (in n-propanol, 278.15 K): 0.0152 | solubility (mole fraction) (in n-propanol, 283.15 K): 0.0168 | solubility (mole fraction) (in n-propanol, 288.15 K): 0.019 | solubility (mole fraction) (in n-propanol, 293.15 K): 0.0216 | solubility (mole fraction) (in n-propanol, 298.15 K): 0.0243 | solubility (mole fraction) (in n-propanol, 303.15 K): 0.0272 | solubility (mole fraction) (in n-propanol, 308.15 K): 0.0312 | solubility (mole fraction) (in n-propanol, 313.15 K): 0.0362 | solubility (mole fraction) (in toluene, 273.15 K): 0.0191 | solubility (mole fraction) (in toluene, 278.15 K): 0.0239 | solubility (mole fraction) (in toluene, 283.15 K): 0.0297 | solubility (mole fraction) (in toluene, 288.15 K): 0.0366 | solubility (mole fraction) (in toluene, 293.15 K): 0.0449 | solubility (mole fraction) (in toluene, 298.15 K): 0.0547 | solubility (mole fraction) (in toluene, 303.15 K): 0.0657 | solubility (mole fraction) (in toluene, 308.15 K): 0.0802 | solubility (mole fraction) (in toluene, 313.15 K): 0.0969
